From patent US20100168228A1, “NOVEL CHEMOTHERAPEUTIC AGENTS AGAINST INFLAMMATION AND CANCER” (RELIANCE LIFE SCIENCES PVT. LTD., priority 2006, published 2010) come the findings set out here.

In test [1] the test system is p65. The test can be described thus: Nuclear translocation of p65 NF-kB by immunocytochemistry, HeLa. Format: cell-based, human. To be noted: 15 μM 3 h, 0.1 nM TNF. As to the method:
FIG. 5: Effect of CAMVE on TNF or LPS induced nuclear translocation of p65. A. HeLa cells either untreated or pretreated with 15 μM CAMVE for 3 h at 37° C. were stimulated with 0.1 nM TNF and immunocytochemical analysis were performed as described in “Materials and Methods”. B. Jurkat (5×10^5 cells/ml) cells were pretreated with indicated concentrations of CAMVE for 3 h and then stimulated with 0.1 nM of TNF for 30 min or 100 ng/ml of SA-LPS (serum activated LPS) for 15 min. After these treatments, cells were washed twice with PBS and nuclei were isolated by incubating the cells with […] Pipes-Triton buffer for 30 min at 4° C. Nuclei were stained for p65 and analyzed using FACS. (i). Representative histogram overlay showing TNF or LPS stimulated (1), basal (2), CAMVE stimulated (3), p65 staining in the nucleus. (ii). Ordinates gives the Isotype-corrected MFI for various treatments.
Hela cells grown on cover slips were washed with 0.1M potassium phosphate buffer (pH 7.4) and fixed with 4% formaldehyde in 0.1M potassium phosphate buffer (pH 7.4) for 1 h at room temperature. The cells were permeabilized with 0.1% Triton X-100 in PBS for 1 h. […] After counterstaining for nuclei with DAPI or Hoechst for 5 mins slides were analyzed under a fluorescence microscope (Labophot-2. Nikon, Tokyo, Japan).

Test [2] relates to COX-2. The test can be described thus: COX-2 protein expression (ELISA). Format: cell-based. As to the method:
FIG. 6: Effect of CAMVE on TNF or LPS induced COX-2 expression. Cells were pretreated with indicated concentrations of CAMVE for 3 h and then stimulated with either TNF (0.1 nM) or SA-LPS (100 ng/ml) for 12 h. After harvesting the treated cells, the cellular lysates were checked for COX-2 protein expression by an enzyme immunoassay as described in the “Materials and Methods”.
Quantitative detection of Cox 2 protein expression by activated cells was done by an enzyme-linked immunosorbent sandwich assay using Zymed COX-2 ELISA kit. 1×10^7 cells were treated with different concentrations of CAMVE and stimulator and incubated at 37° C. for 12 hrs. […] The protein concentrations of the supernatants were measured by Bradford assay (Anal. Biochem. 72:248-254 (1976). 200 μg/100 μl of the protein was assayed per sample according to the kit protocol. Briefly, 100 μl of the sample and the standard were put in the pre antibody coated wells and incubated at 1 h at 37° C. After three washes 100 μl of the HRP conjugated antibody was added and incubated for 30 m is at 4° C. After washing, […] of the TMB substrate was added and incubated for 30 min at room temperature in dark. The reaction was stopped and the absorbance was read at 450 nm.

The test system of test [3] is Cyclin D1. The test can be described thus: Cyclin D1 mRNA, semi-quantitative RT-PCR. In kind it is cell-based, human. Particulars: various concentrations. On the procedure: FIG. 10: Effect of CAMVE on Cell Cycle distribution. A. 5×10^5 cells were treated with indicated concentrations of CAMVE as indicated and cell cycle analyses were performed using Flow Cytometry as described in the “Materials and Methods”. The percentage of cells in G1, S, and G2-M phase were calculated using Cell Quest analysis software and are represented within the histograms. The data shown here are from a representative experiment repeated three times with similar results. B. Expression of human Cyclin D1, was assayed by semi quantitative RT-PCR analysis with GAPDH as internal control. […]
Total RNA was isolated using the standard TRIzol method (Gibco BRL). Briefly, 3×10^6 cells were treated with different concentrations of the compounds as indicated in the legends to Figures and after harvesting the cell pellet was resuspended in 1 ml of TRIzol with repeated pipetting. The homogenized sample was incubated at RT for 5 min to permit complete dissociation of the nucleoprotein complexes. 200 μl of chloroform was added and the tubes were shaken vigorously for 15 sec by hand and then incubated at RT for 3 mins. The samples were then centrifuged at 10,000 RPM for 15 mins at 4° C. […]
Changes in gene expression were verified by semi-quantitative RT-PCR using GAPDH as an internal normalization standard. 1 μg of total RNA (quantified by spectrophotometer) was used to reverse transcribe into cDNA. […]

Test [4] relates to Jurkat cells. The test can be described thus: Nuclear staining assay (propidium iodide), Jurkat. Format: cell-based, human. To be noted: 24 h. On the procedure:
Nuclear staining assay: After treatment with the compound for 24 h, Jurkat cells were washed once with ice-cold EDTA/PBS (5 mM) and fixed with 70% ethanol for 1 h at RT. Fixed cells were placed on slides and stained with PI (5 μg/ml) with RNase A (1 mg/ml) for 20 mins. After decolourization with water, nuclear morphology of cells was examined by fluorescence microscopy.

As for `COC(=O)c1ccc(OC(=O)/C=C/c2ccc(O)c(O)c2)c(OC)c1` [compound 1, Methyl 4-{[(2E)-3-(3,4-dihydroxyphenyl)prop-2-enoyl]oxy}-3-methoxybenzoate], the “TNF induced p65 nuclear translocation (immunofluorescence)” value in test [1] is “did not show p65 signal”. Besides, the “COX-2 protein induction by compound alone” value in test [2] (CAMVE alone) is reported as “did not show any induction of COX 2 protein”. Further, the “TNF or LPS induced COX-2 protein expression” value in test [2] (pretreated 3 h, TNF 0.1 nM or SA-LPS 100 ng/ml 12 h) is recorded as “decreased with increasing concentration of CAMVE treatment”. In addition, the “expression of cyclin D1 m-RNA” value in test [3] is on record as “notably decreased”.

Consider `COc1cc([C@@H]2Oc3c(OC)cc(/C=C/C(=O)O)cc3[C@H]2C(=O)O)ccc1O` [compound 27, 5-[(E)-2-carboxyvinyl]-2β-(4-hydroxy-3-methoxyphenyl)-7-methoxy-2,3-dihydro-1-benzofuran-3α-carboxylic acid], for which the “nuclear morphology after propidium iodide staining” value in test [4] is “typical apoptotic nuclei”.
